Legend:
[1] = test system: ethylene-induced epinasty in tomato plants; assay: Tomato epinasty test, volatile gas treatment; type: in vivo, Patio variety tomato seedlings; settings: ethylene 10 ppm v/v injected four hours later, scored visually sixteen hours later, 10 = complete protection, 0 = no protection; for Gas @ 10 ppm: degree of protection against ethylene-induced epinasty, rating on a scale of 0 to 10: compound as volatile gas at 10 ppm v/v
Experimental: (§1) Objective: The test procedure is designed to determine the ability of an experimental compound to block the epinastic growth response induced by ethylene in tomato plants when the experimental compound is administered either as a volatile gas or as a component of a spray solution.
(§2) Treatment chambers are of an appropriate size for the test plants and are airtight. Each is fitted with a reusable septum to be used for injection of ethylene. Test plants are Patio variety tomato seedlings planted two plants per three inch square plastic pot.
Volatile gas treatment entails placing two pots of Patio var. tomatoes into a polystyrene 4.8 L volume treatment chamber along with one-half (upper or lower section) of a 50×9 mm plastic Petri dish containing a Gelman filter pad. The appropriate amount of experimental compound, dissolved in 1.0 ml acetone, is pipetted onto the filter pad and the chamber immediately sealed. Four hours later ethylene gas equal to 10 ppm v/v final concentration is injected into the sealed chamber. Sixteen hours later the chambers are opened in an exhaust hood, allowed to air and the plants scored visually for the degree of protection against ethylene-induced epinasty conferred by the experimental compound when compared to ethylene treated and untreated controls on a scale of 0 to 10. A rating of 10 means complete protection. A rating of 0 means no protection from the effects of ethylene. Gas treatment concentrations are volume/volume.

[2] = test system: ethylene-induced epinasty in tomato plants; assay: Tomato epinasty test, spray application treatment; type: in vivo, Patio variety tomato seedlings; settings: spray at 10 ppm in 10% acetone/90% water with 0.05% Silwett L-77; air-dried four hours; ethylene 10 ppm v/v; scored visually sixteen hours later; 10 = complete protection, 0 = no protection
Experimental: as §1, §2
Spray application treatment entails using a DeVilbiss atomizer to completely cover all foliage and stems of two pots of Patio var. tomato plants with the appropriate amount of experimental compound dissolved in 10% acetone/90% water with 0.05% Silwett L-77 surfactant. Plants are air-dried in a drying hood for four hours then transferred to a 4.8 L polystyrene chamber which is sealed.
Ethylene gas equal to 10 ppm v/v final concentration is injected into the sealed chamber. Sixteen hours later the chambers are opened in an exhaust hood, allowed to air and the plants scored visually for the degree of protection against ethylene-induced epinasty conferred by the experimental compound when compared to ethylene treated and untreated controls on a scale of 0 to 10. A rating of 10 means complete protection. […]

Compound	Gas @ 10 ppm: degree of protection against ethylene-induced epinasty, rating on a scale of 0 to 10 [1]	Gas @ 1000 ppm: degree of protection against ethylene-induced epinasty, rating on a scale of 0 to 10 ([1]; compound as volatile gas at 1000 ppm v/v)	Spray @ 10 ppm: degree of protection against ethylene-induced epinasty, rating on a scale of 0 to 10 [2]
CCCCCCCCC1=CC12OCC(C)(C)CO2 [Compound 2, 6.6-Dimethyl-1-octyl-4.8-dioxa-spiro[2.5]oct-1-ene]	0	4	0
C1=C2CCCCCC12 (centres unmarked) [Compound 1, Bicyclo[5.1.0]oct-1(8)-ene]	8	–	0
